# Experimental data published in paper PMC12957798, “Adaptation of plateau frog peptide: From antimicrobial to angiogenic and proliferative functions” (Journal of Advanced Research, 2025).
# Experiments:
# A. baumannil ATCC1968 = test: Broth microdilution MIC, A. baumannii; type: cell-based, Acinetobacter baumannii; conditions: positive control, 37 °C, 24 h, OD600
# Procedure: (§1) Disk diffusion and broth microdilution tests were selected as the standard method for screening the antimicrobial activity of SC17-2 [58]. The experiments were conducted utilising the disk diffusion test, whereby the following strains were examined: Acinetobacter baumannii (ATCC 19606), Candida auris (ATCC 10231), Pseudomonas aeruginosa (ATCC 27853) and Staphylococcus aureus (ATCC 6538). The concentration of bacterial suspension was then adjusted to 1 × 10^5 CFU/mL with saline, after which it was set aside. Separate plates containing bacterial agar were prepared: MH agar was utilised for the isolation of bacterial samples, while Sartorius agar was employed for the isolation of fungal samples. The suspensions containing the aforementioned microorganisms were then spread on the designated plates at a rate of 1:1000. A sterile filter paper was used to dispense 1 mL of SC17-2 (10 mg/mL), with equal amounts of PBS and Vancomycin/Colistin serving as controls. The plates were then subjected to the appropriate temperature (24 h at 37 °C) and subsequently observed under a camera to ascertain the results. […] At the conclusion of this period, the absorbance was measured using a Microplate Reader (Synergy H1, BioTek, USA) with a wavelength of 600 nm. […]
# [1] = system: Escherichia coli ATCC2771; test: Broth microdilution MIC, E. coli; type: cell-based; parameters: unit not given beside the values; conditions: positive control, 37 °C, 24 h, OD600
# Procedure: as §1
# S. aureus ATCC6538 = test: Broth microdilution MIC, S. aureus; type: cell-based, Staphylococcus aureus; parameters: unit not given beside the values; conditions: positive control, 37 °C, 24 h, OD600
# Procedure: as §1
# (p-Smad2/3)/(Smad2/3) = test: Western blot p-Smad2/3 / Smad2/3 in HaCaT; type: cell-based, Human; conditions: VEGF, n = 3
# Procedure: (§2) HaCaT was inoculated in 12-well plates (2 × 10^5 cells/well) and cultured for 24 h. Afterwards, HaCaT cells were treated with equal amounts of VEGF, SC17-2, and PBS for 16 h. Cells were washed with PBS, after which the samples were collected and added to 1 mL of RIPA lysate containing protease inhibitors and phosphatase inhibitors and placed on ice for 30 min. Allowed to be after sufficient lysis, the supernatant was centrifuged and collected to determine the protein concentration using a nanodrop, followed by the addition of SDS sampling buffer and heating at 95 °C for 10 min. Samples were loaded and run on a gel block based on the determined sample concentration, and then electrotransferred onto a 0.45 μm PVDF membrane. […] After washing three times with TBST, proteins were visualised and scanned by enhanced chemiluminescence using the ChemiDoc XRS imaging system (Bio-Rad, Hercules, CA, USA).
# p-ERK/ERK = test: Western blot p-ERK/ERK in HaCaT; type: cell-based, Human; conditions: VEGF, n = 3
# Procedure: as §2
# BALB/c mice = test: Mouse full-thickness skin wound healing; type: in vivo; conditions: day 13, VEGF 20 ng/mL, 20 μL daily on wound, relative to day 1, mean ± SEM, n = 7
# Procedure: Mice were anaesthetised with sodium pentobarbital 2 % by intraperitoneal injection (0.1 mL/20 g mouse body weight), and after anaesthesia, hair was removed from the back using depilatory cream and power scissors, and circular full-thickness skin wounds of the same diameter were marked and created on the back of each mouse using circular stamps and red sealant. The mouse wounds were then covered and infiltrated daily with 20 μL of different concentrations of SC17-2 or 20 ng/mL VEGF, and an equal volume of saline was used in the control group. The mice were anaesthetised by isoflurane nebulisation (concentration 2 %) every two days and then placed under an optical camera to photograph the effect of the wound area.
# Sodium pentobarbital (2 %) was utilised for the anaesthetisation of mice by intraperitoneal injection (0.1 mL/20 g of mouse body weight). Subsequent to the induction of anaesthesia, the dorsal hair was removed using depilatory creams and electric scissors. Thereafter, circular full skin wounds of the same diameter were marked and created on the back of each mouse using circular stamps and red stencils. Mouse wounds were then covered and infiltrated daily with 20 μL of different concentrations of SC17-2 or 20 ng/mL of VEGF, and an equal volume of saline was used in the control group. Mice were anaesthetised every two days using isoflurane nebulisation followed by anaesthesia (concentration 2 %), after which they were placed under an optical camera to photograph the effect of wound area. After 13 days of treatment, mice were anaesthetised using isoflurane nebulisation followed by injection of an overdose of sodium pentobarbital to euthanise the mice (200 mg/kg). The wounds and their surrounding tissues were then excised for histopathological evaluation (Masson and H&E staining) and analysed by Enface immunofluorescence staining.
# TGF-β = test: Western blot TGF-β in HaCaT; type: cell-based, Human; conditions: VEGF, n = 3
# Procedure: as §2
compound,measurement,setting,value
CN[C@H](CC(C)C)C(=O)N[C@H]1C(=O)N[C@@H](CC(N)=O)C(=O)N[C@H]2C(=O)N[C@H]3C(=O)N[C@H](C(=O)N[C@H](C(=O)O)c4cc(O)cc(O)c4-c4cc3ccc4O)[C@H](O)c3ccc(c(Cl)c3)Oc3cc2cc(c3O[C@@H]2O[C@H](CO)[C@@H](O)[C@H](O)[C@H]2O[C@H]2C[C@](C)(N)[C@H](O)[C@H](C)O2)Oc2ccc(cc2Cl)[C@H]1O [Vancomycin],MIC,A. baumannil ATCC1968,0.78
Colistin,MIC,[1],0.78
same,MIC,S. aureus ATCC6538,0.78
VEGF,Smad2/3 phosphorylation,(p-Smad2/3)/(Smad2/3),significantly increased Smad2/3 phosphorylation
same,ERK phosphorylation,p-ERK/ERK,significantly increased ERK phosphorylation
same,wound area,BALB/c mice,7.04 ± 1.43%
same,expression of TGF-β,TGF-β,significantly increase the expression of TGF-β
